Measured values published in patent publication US11414416B1, “Compounds and uses thereof” (Foghorn Therapeutics Inc., priority 2019, dated 2022).
Read-outs that look alike come from different tables or passages of the source.

Biological target: Nanoluciferase-BRD9 fusion protein (Homo sapiens (Human), UniProt Q9H8M2)
Experiment: SYO1 BRD9 NanoLuc degradation assay
Type: cell-based
Settings: SYO-1 cells expressing 3×FLAG-NLuc-BRD9, 6 hours, read-out: SYO1 BRD9-NanoLuc degradation IC50
In short: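 Degradation was read as loss of nanoluciferase signal (Nano-Glo) after 6 h compound exposure in a stable SYO-1 line carrying 3×FLAG-NLuc-BRD9 (8000 cells/well). Normalised between DMSO (high) and a 1 μM known BRD9 degrader (low).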

Chain of Nanoluciferase-BRD9 fusion protein (Q9H8M2 whole entry, the tested form may be a part): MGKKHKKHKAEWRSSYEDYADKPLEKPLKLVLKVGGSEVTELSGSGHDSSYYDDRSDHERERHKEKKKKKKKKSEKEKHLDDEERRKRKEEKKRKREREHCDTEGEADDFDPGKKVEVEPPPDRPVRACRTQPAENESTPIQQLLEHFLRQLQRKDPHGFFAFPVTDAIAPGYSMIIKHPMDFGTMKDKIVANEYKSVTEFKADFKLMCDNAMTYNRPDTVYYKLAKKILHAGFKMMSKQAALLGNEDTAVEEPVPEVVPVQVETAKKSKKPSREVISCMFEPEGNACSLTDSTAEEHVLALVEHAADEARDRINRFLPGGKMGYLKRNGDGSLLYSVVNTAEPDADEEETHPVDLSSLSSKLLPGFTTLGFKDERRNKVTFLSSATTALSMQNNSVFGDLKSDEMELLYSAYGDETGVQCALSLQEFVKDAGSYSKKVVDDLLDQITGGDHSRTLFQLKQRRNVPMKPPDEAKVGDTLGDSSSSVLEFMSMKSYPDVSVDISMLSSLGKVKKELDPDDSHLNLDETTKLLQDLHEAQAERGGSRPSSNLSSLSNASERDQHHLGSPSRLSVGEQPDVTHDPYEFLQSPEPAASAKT

| Compound | DC50 (Table 5B) | DC50 (Table 5C) | other results |
| --- | --- | --- | --- |
| COc1cc(-c2cn(C)c(=O)c(C)c2C)cc(OC)c1CN1CCN(CCC2CCN(c3ccc4c(c3)CN(C3CCC(=O)NC3=O)C4=O)CC2)CC1 (stereo not shown) [Compound D362] | < 10 nM |  |  |
| COc1cc(-c2cc(C(F)F)c(=O)n(C)c2)cc(OC)c1CN1CCC2(C1)CN(c1ccc3c(c1)C(=O)N(C1CCC(=O)NC1=O)C3)C2 (stereo not shown) [Compound D403] |  | < 10 nM |  |
| COc1cc(-c2cn(C)c(=O)c3cnccc23)cc(OC)c1CN(C)CCCCNC1CC12CCN(c1ccc3c(c1)C(=O)N(C1CCC(=O)NC1=O)C3=O)C2 (stereo not shown) [Compound D252] | < 10 nM |  |  |
| COc1cc(-c2cc(C(F)F)c(=O)n(C)c2)cc(OC)c1CN1CCC2(C1)CN(c1ccc3c(c1)CN(C1CCC(=O)NC1=O)C3=O)C2 (stereo not shown) [Compound D408] |  | < 10 nM |  |
| COc1cc(-c2cn(C)c(=O)c3cnccc23)cc(OC)c1CN1CC[C@H]1C(=O)NCCCCCCCCNc1cccc2c1C(=O)N([C@@H]1CCC(=O)NC1=O)C2=O (stereo in doubt) [Compound D18, (2S)-1-((2,6-dimethoxy-4-(2-methyl-1-oxo-2,7-naphthyridin-4-yl)phenyl)methy)-N-(8-((2-((R)-2,6-dioxopiperidin-3-yl)-1,3-dioxoisoindol-4-yl)amino)octyl) azetidine-2-carboxamide] |  |  | DC50 (Table 5A): < 10 nM |
| COc1cc(-c2cn(C)c(=O)c3cnccc23)cc(OC)c1CN1CCC2(CC1)CN(CCCCCOc1ccc3c(c1)C(=O)N(C1CCC(=O)NC1=O)C3=O)CCO2 (stereo not shown) [Compound D47, 5-[[5-(9-[[2,6-dimethoxy-4-(2-methyl-1-oxo-2,7-naphthyridin-4-yl)phenyl]methyl]-1-oxa-4,9-diazaspiro[5.5]undecan-4-yl)pentyl]oxy]-2-(2,6-dioxopiperidin-3-yl)isoindole-1,3-dione formic acid] |  |  | DC50 (Table 5A): < 10 nM |
| Cc1cc(-c2ccc(CN3CCN(c4ccc5c(c4)C(=O)N(C4CCC(=O)NC4=O)C5)CC3)cc2)cn(C)c1=O (stereo not shown) [Compound D460] |  | < 10 nM |  |
| COc1cc(-c2c(C)n(C)c(=O)c3[nH]c(C)cc23)cc(OC)c1CN1CCC2(CC1)CN(c1ccc3c(c1)C(=O)N(C1CCC(=O)NC1=O)C3=O)C2 (stereo not shown) [Compound D446] |  | > 1000 nM |  |
| COc1cc(-c2cn(C)c(=O)c3cnccc23)cc(OC)c1CN(C)CCCCN1CCCC2(CC(Oc3ccc4c(c3)C(=O)N([C@H]3CCC(=O)NC3=O)C4=O)C2)C1 (stereo partly shown) [Compound D246] | < 10 nM |  |  |
| COc1cc(-c2cc(C(F)F)c(=O)n(C)c2)cc(OC)c1CN1CC(C#Cc2ccc3c(c2)CN(C2CCC(=O)NC2=O)C3=O)C1 (stereo not shown) [Compound D441] |  | < 10 nM |  |
| COc1cc(-c2cn(C)c(=O)c3cnccc23)cc(OC)c1CN1CC(CC(=O)N2CCC3(CC2)CCN(c2ccc4c(c2)C(=O)N(C2CCC(=O)NC2=O)C4=O)C3)C1 (stereo not shown) [Compound D191] | < 10 nM |  |  |
| COc1cc(-c2cn(C)c(=O)c(C)c2C)c(OC)cc1CN1CC(CN2CCC3(CC2)CN(c2ccc4c(c2)C(=O)N(C2CCC(=O)NC2=O)C4=O)C3)C1 (stereo not shown) [Compound D354] | < 10 nM |  |  |
| COc1cc(-c2cn(C)c(=O)c3cnccc23)cc(OC)c1CN1CCC2(CC1)CN(c1cc(C(=O)NC3CCC(=O)NC3=O)ncn1)C2 (stereo not shown) [Compound D395] |  | < 10 nM |  |
| COc1cc(-c2cc(C)c(=O)n(C)c2C)c(OC)cc1CN1CC(CN2CCC3(CC2)CN(c2ccc4c(c2)C(=O)N(C2CCC(=O)NC2=O)C4=O)C3)C1 (stereo not shown) [Compound D359] | < 10 nM |  |  |
| COc1cc(-c2cc(C)c(=O)n(C)c2)cc(OC)c1CN1CC(/C=C/c2ccc3c(c2)C(=O)N(C2CCC(=O)NC2=O)C3)C1 (stereo not shown) [Compound D457] |  | < 10 nM |  |
| COc1cc(-c2cn(C)c(=O)c3cnccc23)cc(OC)c1CN1CCC2(CC1)CN(c1ccnc(C(=O)NC3CCC(=O)NC3=O)c1)C2 (stereo not shown) [Compound D471] |  | < 10 nM |  |
| COc1cc(-c2cn(C)c(=O)c3cnccc23)cc(OC)c1CN1CC(CC(=O)NC2CC3(C2)CN(c2ccc4c(c2)C(=O)N(C2CCC(=O)NC2=O)C4=O)C3)C1 (stereo not shown) [Compound D194] | < 10 nM |  |  |
| COc1cc(-c2cn(C)c(=O)c3cnccc23)cc(OC)c1CN1CC(CC(=O)NC2CC3(CCN(c4ccc5c(c4)C(=O)N(C4CCC(=O)NC4=O)C5=O)CC3)C2)C1 (stereo not shown) [Compound D189] | < 10 nM |  |  |
| COc1cc(-c2cc(C)c(=O)n(C)c2)cc(OC)c1CN1CCC2CN(c3ccc4c(c3)C(=O)N(C3CCC(=O)NC3=O)C4=O)C21 (stereo not shown) [Compound D339] | < 10 nM |  |  |
| COc1cc(-c2cccc3c(=O)n(C)ccc23)cc(OC)c1CN1CCC2(CC1)CN(c1ccc3c(c1)C(=O)N(C1CCC(=O)NC1=O)C3)C2 (stereo not shown) [DD13] |  | 10 to 100 nM |  |
| C/C=C/Cn1cc(-c2cc(OC)c(CN3CCC4(CC3)CN(c3ccc5c(c3)C(=O)N(C3CCC(=O)NC3=O)C5)C4)c(OC)c2)n2cncc2c1=O (stereo not shown) [Compound D454] |  | < 10 nM |  |
| COc1cc(-c2cc(C)c(F)c3ccccc23)cc(OC)c1CN1CCC(CN2CCC3(CC2)CC(Oc2ccc4c(c2)C(=O)N(C2CCC(=O)NC2=O)C4=O)C3)CC1 (stereo not shown) [DD10] | 100 to 1000 nM |  |  |

| Compound | DC50 (Table 5B) | DC50 (Table 5C) | other results |
| --- | --- | --- | --- |
| COc1cc(-c2cn(C)c(=O)c3ccnn23)cc(OC)c1CN1CCC2(CC1)CN(c1ccc3c(c1)C(=O)N(C1CCC(=O)NC1=O)C3)C2 (stereo not shown) [Compound D456] |  | < 10 nM |  |
| COc1cc(-c2cn(C)c(=O)c3cnccc23)cc(OC)c1CN1CC(CC(=O)N2CCC3(CC2)CN(c2ccc4c(c2)C(=O)N(C2CCC(=O)NC2=O)C4=O)C3)C1 (stereo not shown) [Compound D76] |  |  | DC50 (Table 5A): < 10 nM |
| COc1cc(-c2cc(C)c(=O)n(C)n2)cc(OC)c1CN1CCC2(CC1)CN(c1ccc3c(c1)C(=O)N(C1CCC(=O)NC1=O)C3)C2 (stereo not shown) [Compound D358] | < 10 nM |  |  |
| COc1cc(-c2cn(C)c(=O)c3cnccc23)cc(OC)c1CN1CC2(CN(CC#Cc3ccc4c(c3)C(=O)N(C3CCC(=O)NC3=O)C4=O)C2)C1 (stereo not shown) [Compound D309] | 10 to 100 nM |  |  |
| COc1cc(-c2cn(C)c(=O)c3cnccc23)cc(OC)c1CN(C)CCN(C)CCNC(=O)COc1ccc2c(c1)C(=O)N(C1CCC(=O)NC1=O)C2=O (stereo not shown) [DD2] | 100 to 1000 nM |  |  |
| COc1cc(-c2cn(C)c(=O)c3cnccc23)cc(OC)c1CN1CCC(n2cc(COc3ccc4c(c3)C(=O)N(C3CCC(=O)NC3=O)C4=O)nn2)CC1 (stereo not shown) [Compound D289] | < 10 nM |  |  |
| COc1cc(-c2cn(C)c(=O)c3cnccc23)cc(OC)c1CN1CCC2(CC1)CN(CC#Cc1ccc3c(c1)C(=O)N(C1CCC(=O)NC1=O)C3=O)C2 (stereo not shown) [Compound D235] | < 10 nM |  |  |
| COc1cc(-c2cn(C)c(=O)c3cnccc23)cc(OC)c1CN(C)CCCCCCCCNc1cccc2c1CN(C1CCC(=O)NC1=O)C2=O (stereo not shown) [DD4] | < 10 nM |  |  |
| COc1cc(-c2cn(C)c(=O)c3cnccc23)cc(OC)c1CN(C)CCOCCN1CCN(c2ccc3c(c2)C(=O)N(C2CCC(=O)NC2=O)C3=O)CC1 (stereo not shown) [Compound D46, 5-(4-(2-(2-((2,6-dimethoxy-4-(2-methyl-1-oxo-1,2-dihydro-2,7-naphthyridin-4-yl)benzyl)(methyl)amino)ethoxy)ethyl)piperazin-1-yl)-2-(2,6-dioxopiperidin-3-yl)isoindoline-1,3-dione formic acid] |  |  | DC50 (Table 5A): < 10 nM |
| COc1cc(-c2cn(C)c(=O)c3cnccc23)cc(OC)c1CN1CC(CC(=O)N2CC3(CC(Oc4ccc5c(c4)C(=O)N(C4CCC(=O)NC4=O)C5=O)C3)C2)C1 (stereo not shown) [Compound D234] | 10 to 100 nM |  |  |
| COc1cc(-c2cc(C(F)F)c(=O)n(C)c2)cc(OC)c1CN1CCN(CCC2CCN(c3ccc4c(c3)C(=O)N(C3CCC(=O)NC3=O)C4)CC2)CC1 (stereo not shown) [Compound D399] |  | < 10 nM |  |
| COc1cc(-c2cn(C)c(=O)c3cnccc23)cc(OC)c1CN(C)C(=O)CCCCN1CC2(C1)CN(c1ccc3c(c1)C(=O)N(C1CCC(=O)NC1=O)C3=O)C2 (stereo not shown) [Compound D206] | < 10 nM |  |  |
| COc1cc(-c2cc(C)c(=O)n(C)c2C)cc(OC)c1CN1CCN(c2ccc3c(c2)C(=O)N(C2CCC(=O)NC2=O)C3=O)CC1 (stereo not shown) [Compound D343] | < 10 nM |  |  |
| COc1cc(-c2cn(C)c(=O)c3cnccc23)cc(OC)c1CN1CC(n2cc(COCCOc3ccc4c(c3)C(=O)N(C3CCC(=O)NC3=O)C4=O)nn2)C1 (stereo not shown) [Compound D299] | < 10 nM |  |  |
| COc1cc(-c2cn(C)c(=O)c3cnccc23)cc(OC)c1CN1CC(CC(=O)NC2CC3(C2)CC(Oc2ccc4c(c2)C(=O)N(C2CCC(=O)NC2=O)C4=O)C3)C1 (stereo not shown) [Compound D78] |  |  | DC50 (Table 5A): 10 to 100 nM |
| COc1cc(-c2cn(C)c(=O)c3cnccc23)cc(OC)c1CN1CC(S(=O)(=O)NCCN2CCN(c3ccc4c(c3)C(=O)N(C3CCC(=O)NC3=O)C4=O)CC2)C1 (stereo not shown) [Compound D24, 1-[[2,6-dimethoxy-4-(2-methyl-1-oxo-2,7-naphthyridin-4-yl)phenyl]methyl]-N-(2-[4-[2-(2,6-dioxopiperidin-3-yl)-1,3-dioxoisoindol-5-yl]piperazin-1-yl]ethyl)azetidine-3-sulfonamide formic acid] |  |  | DC50 (Table 5A): 10 to 100 nM |
| COc1cc(-c2cn(C)c(=O)c3nccn23)cc(OC)c1CN1CCC2(CC1)CN(c1ccc3c(c1)C(=O)N(C1CCC(=O)NC1=O)C3)C2 (stereo not shown) [Compound D447] |  | 100 to 1000 nM |  |
| COc1cc(-c2cn(C)c(=O)c3cnccc23)cc(OC)c1CN1CC(OCc2cn(CCOc3ccc4c(c3)C(=O)N(C3CCC(=O)NC3=O)C4=O)nn2)C1 (stereo not shown) [Compound D61, 5-(2-(4-(((1-(2,6-dimethoxy-4-(2-methyl-1-oxo-1,2-dihydro-2,7-naphthyridin-4-yl)benzyl)azetidin-3-yl)oxy)methyl)-1H-1,2,3-triazol-1-yl)ethoxy)-2-(2,6-dioxopiperidin-3-yl)isoindoline-1,3-dione] |  |  | DC50 (Table 5A): 10 to 100 nM |
| COc1cc(-c2ccc(=O)n(C)c2)cc(OC)c1CN1CC(CN2CCC3(CC2)CN(c2ccc4c(c2)C(=O)N(C2CCC(=O)NC2=O)C4=O)C3)C1 (stereo not shown) [Compound D347] | < 10 nM |  |  |
| COc1cc(-c2cn(C)c(=O)c3cnccc23)cc(OC)c1CN1CC(CC(=O)N[C@@H]2C[C@@]23CCN(c2ccc4c(c2)C(=O)N(C2CCC(=O)NC2=O)C4=O)C3)C1 (stereo partly shown) [Compound D232] | 10 to 100 nM |  |  |
| COc1cc(-c2cn(C)c(=O)c3cnccc23)cc(OC)c1CN(C)CC(=O)NCCCCCOc1ccc(-c2ccc3c(c2)C(=O)N(C2CCC(=O)NC2=O)C3=O)cc1 (stereo not shown) [DD8] | < 10 nM |  |  |
